“Also recorded” adds a separate entry of the source.
Columns and labels:
[1] = system: cyclin D1, cyclin E, phosphorylated Rb (Ser807/811) and cleaved PARP; test: Western blot pathway signaling in MCF7-ARO parental and resistant lines; type: cell-based; settings: 24 hours of treatment (FIG. 2)
Experimental: Cells were treated for 24 hours with 20 nM GDC-0032 (Parental and Letrozole-R1) or 2.5 μM (Let-R1.GDC-0032-R) and/or 2.5 μM palbociclib.
Taselisib combines well with palbociclib in double-resistant MCF7-ARO cells (FIG. 1c). The effect on viability of taselisib and palbociclib as single agents is shown, respectively. The combination effect of the two drugs is indicated. Starting doses for taselisib were 80 nM for the parental and letrozole-R1 lines and 10 μM for […]. Palbociclib starting doses were 10 μM for all three lines (FIGS. 1a-c). Immunoblots from samples treated for 24 hours with 20 nM taselisib (Parental and Letrozole-R1) or 2.5 (Let-R1.taselisib-R). (D) Increased growth arrest is observed with combined PI3K and CDK4/6 inhibition. Immunoblots from samples treated for 24 hours with 20 nM taselisib (Parental and Letrozole-R1) or 2.5 μM (Let-R1. taselisib-R) and/or 2.5 μM palbociclib. Dotted lines for all viability data are indicative of CTG counts at the beginning of drug treatment. Error bars indicate standard deviation around the mean.

[2] = system: MCF-7 breast cancer xenografts; test: In vivo tumor efficacy study, MCF-7 breast cancer xenografts; settings: MCF-7 xenograft mice; for CR: complete responses (100% tumor regression); for PR: partial responses (tumor regression >50% but <100%); for TTP 2X: time to progression 2X; for TTP 2X / AUC/Day % TGI (lower, upper): po qdx21; for AUC/Day % TGI (lower, upper): tumor growth inhibition vs vehicle; for Vol Day 21: tumor volume at day 21, po qdx21 (method b194 gives mm^3)
Experimental: The animals were fed ad libitum water (reverse osmosis, 1 ppm Cl) and NIH 31 Modified and Irradiated Lab Diet® consisting of 18.0% crude protein, 5.0% crude fat, and 5.0% crude fiber. The mice were housed on irradiated ALPHA-Dri® Bed-o'Cobs® Laboratory Animal Bedding in static microisolators on a 12-hour light cycle at 21-22° C. (70-72° F.) and 40-60% humidity. PRC specifically complies with the recommendations of the Guide for Care and Use of Laboratory Animals with respect to restraint, husbandry, surgical procedures, feed and fluid regulation, and veterinary care. The animal care and use program at PRC is accredited by the Association for Assessment and Accreditation of Laboratory Animal Care International (AAALAC), which assures compliance with accepted standards for the care and use of laboratory animals.
Xenografts were initiated with cancer cells, including breast cancer cell lines MCF-7 (Soule H. D. et al (1973) Jour. Nat. Cancer Inst. 51 (5): 1409-1416; Levenson A. S. et al (1997) Cancer Res. 57 (15): 3071-3078; LaCroix M. et al (2004) Breast Res. and Treatment 83 (3): 249-289) and MDA-MB-453 (Vranic S. et al (2011) Onc. Letters 2: 1131-1137; Hall R. E. et al (1994) Euro. Jour. Cancer 30(4):484-490). Cells were cultured in RPMI 1640 medium supplemented with 10% fetal bovine serum, 2 mM glutamine, 100 units/mL penicillin, […] streptomycin sulfate and 25 μg/mL gentamicin. The cells were harvested during exponential growth and resuspended in phosphate buffered saline (PBS) at a concentration of 5×10^6 or 10×10^6 cells/mL depending on the doubling time of the cell line. Tumor cells were implanted subcutaneously in the right flank, and tumor growth was monitored as the average size approached the target range of 100 to 150 mm3. Twenty-one days after tumor implantation, designated as Day 0 of the study, the mice were placed into four groups each consisting of ten mice with individual tumor volumes ranging from 75-172 mm3 and group mean tumor volumes from 120-121 mm3 (see Appendix A). Volume was calculated using the formula: […]
GDC-0032 was supplied as a dry powder in salt form, which contained 73% active agent, and was stored at room temperature protected from light. Drug doses were prepared weekly in 0.5% methylcellulose: 0.2% Tween 80 in deionized water (“Vehicle”) and stored at 4° C. The salt form containing 73% active agent was accounted for in the formulation of GDC-0032 doses. Doses of GDC-0032 were prepared on each day of dosing by diluting an aliquot of the stock with sterile saline (0.9% NaCl). All doses were formulated to deliver the stated mg/kg dosage in a volume of 0.2 mL per 20 grams of body weight (10 mL/kg).
All doses were scaled to the body weights of the individual animals and were provided by the route indicated in each of the figures.
Tumor volume was measured in 2 dimensions (length and width), using Ultra Cal IV calipers (Model 54 10 111; Fred V. Fowler Company), as follows: tumor volume (mm^3)=(length×width^2)×0.5 and analyzed using Excel version 11.2 (Microsoft Corporation). A linear mixed effect (LME) modeling approach was used to analyze the repeated measurement of tumor volumes from the same animals over time (Pinheiro, J. et al (2009); Tan, N. et al (2011) Clin. Cancer Res. 17(6):1394-1404). This approach addresses both repeated measurements and modest dropouts due to any non-treatment-related death of animals before study end. Cubic regression splines were used to fit a nonlinear profile to the time courses of log 2 tumor volume at each dose level. These nonlinear profiles were then related to dose within the mixed model. Tumor growth inhibition as a percentage of vehicle control (% TGI) was calculated as the percentage of the area under the fitted curve (AUC) for the respective dose group per day in relation to the vehicle, using the following formula: % TGI=100×(1−AUCdose/AUCveh). […]

[3] = system: MCF7×2.3.ARO.LetR letrozole-resistant breast cancer cells (Letrozole-R1); test: CellTiter-Glo cell viability, letrozole-resistant MCF7x2.3.ARO.LetR; type: cell-based; settings: letrozole-resistant MCF7 LetR (FIG. 1b, FIG. 4)
Experimental: (§1) Cell culture. MCF7 cell line was obtained from the American Type Culture Collection (ATCC, VA). The cells were tested and authenticated using gene expression and single nucleotide polymorphism genotyping arrays (Hoeflich K P, et al (2009) Clin Cancer Res, 15(14):4649-4664; Hu X, et al (2009) Mol Cancer Res, 7(4):511-522) and cultured in RPMI supplemented with 10% fetal bovine serum, 100 units/ml penicillin, 100 µg/ml streptomycin, 2 mM L-glutamine and NEAA at 37° C. under 5% CO2. Stable aromatase-expressing MCF7 cells (MCF7-ARO) were generated by transfection of a plasmid vector containing the full aromatase gene and a neomycin selection gene. The cells were maintained in androstenedione and all experiments were performed in the presence of androstenedione except where indicated
(§2) The CellTiter-Glo® Luminescent Cell Viability Assay is a homogeneous method to determine the number of viable cells in culture based on quantitation of the ATP present, which signals the presence of metabolically active cells. […]
(§3) The assay assesses the ability of compounds to enter cells and inhibit cell proliferation. The assay principle is based on the determination of the number of viable cells present by quantitating the ATP present in a homogenous assay where addition of the Cell Titer-Glo® reagent results in cell lysis and generation of a luminescent signal through the luciferase reaction. […]
Cell viability assays. […] After 4 days incubation, relative numbers of viable cells were estimated using CellTiter-Glo (Promega, Madison, Wis.) and total luminescence was measured on an Envision plate Reader (PerkinElmer, Foster City, Calif.). […]
Cell viability assays and combination assays: Cells were seeded at 1000-2000 cells/well in 384-well plates for 16 h. […] After 4 days, relative numbers of viable cells were measured by luminescence using Cell Titer-Glo® (Promega) according to the manufacturer's instructions and read on a Wallac Multilabel Reader® (PerkinElmer, Foster City). EC50 values were calculated using Prism® 4.0 software (GraphPad, San Diego). […]

[4] = system: pAkt, pPRAS40, pS6RP, pRb, cleaved PARP in MDA-MB-453 tumors; test: Protein levels (pharmacodynamic markers) in MDA-MB-453 tumors; type: in vivo, mice; settings: for levels of pRB (ratio pRb to tRb): GDC-0032 5 mg/kg, palbociclib 50 mg/kg, 1 hr and 4 hr (FIG. 9d)
Experimental: FIGS. 9a-d show ratios of protein levels of mice treated with vehicle, GDC-0032 at 5 mg/kg, palbociclib at 50 mg/kg, and the combination of GDC-0032 at 5 mg/kg+palbociclib at 50 mg/kg, measured at 1 hr and 4 hr.

[5] = system: MCF7×2.3.CMV.ARO.LetR letrozole-resistant breast cancer cells; test: CellTiter-Glo cell viability, MCF7x2.3.CMV.ARO.LetR; type: cell-based; settings: dose titrations (FIG. 6)
Experimental: as §1, §2, §3

In the case of Cc1nc(-c2cn3c(n2)-c2ccc(-c4cnn(C(C)(C)C(N)=O)c4)cc2OCC3)n(C(C)C)n1 [GDC-0032, 2-(4-(2-(1-isopropyl-3-methyl-1H-1,2,4-triazol-5-yl)-5,6-dihydrobenzo[f]imidazo[1,2-d][1,4]oxazepin-9-yl)-1H-pyrazol-1-yl)-2-methylpropanamide], the “PI3K pathway signaling (immunoblot)” value [1] is reported as “decreases”, the “cleaved PARP (immunoblot)” value [1] is reported as “detected” and the CR [2] is reported as 0. The PR [2] was 0, the “TTP 2X” value [2] was 9.5 and the “AUC/Day % TGI (lower, upper)” value [2] was 49 (16, 71) %. For the same compound, the “Vol Day 21” value [2] was 349, the “cell viability (CellTiter-Glo)” value [3] was “potency remains; also recorded: equally sensitive” and the “cell viability (CellTiter-Glo)” value ([3]; listed as taselisib) was “similarly sensitive”. For the same compound, the “levels of pAkt (ratio pAkt to tAkt)” value ([4]; 5 mg/kg, 1 hr and 4 hr (FIG. 9a)) was “effectively decreased”, the “levels of pPRAS40 (ratio pPRAS40 to tPRAS40)” value ([4]; 5 mg/kg, 1 hr and 4 hr (FIG. 9b)) was “effectively decreased” and the “levels of pS6RP (ratio pS6RP to tS6RP)” value ([4]; 5 mg/kg, 1 hr and 4 hr (FIG. 9c)) was “effectively decreased”. For the same compound, the “cell death based on cleaved PARP” value ([4]; 5 mg/kg, 1 hr and 4 hr (FIG. 9e)) was “induced cell death”, the “levels of pRB (ratio pRb to tRb)” value [4] was “decreased” and the “cell viability (CellTiter-Glo)” value [5] was “potency remains”.

In the case of CC(=O)c1c(C)c2cnc(Nc3ccc(N4CCNCC4)cn3)nc2n(C2CCCC2)c1=O [palbociclib, 6-acetyl-8-cyclopentyl-5-methyl-2-(5-(piperazin-1-yl)pyridin-2-ylamino)pyrido[2,3-d]pyrimidin-7(8H)-one, reference compound], the CR [2] is reported as 0, the PR [2] is reported as 0 and the “TTP 2X” value [2] is reported as 8.5. The “AUC/Day % TGI (lower, upper)” value [2] was 39 (0, 63) %, the “Vol Day 21” value [2] was 421 and the “cell viability (CellTiter-Glo)” value [3] was “more resistant”. The “levels of pRB (ratio pRb to tRb)” value [4] was “decreased”.
